Patent US20060079453A1, “Hla binding peptides and their uses” (priority 2002, published 2006)
Where two headings read alike, the source gives them in different places. No end group written: not given here.

Columns and labels:
HLA-B*4002 = HLA-B*4002 (Homo sapiens, UniProt P01889, A65T/A93T/A95T/D138N/D201E/D98Y/E176V/E204Q/E69K/K202T/N87E/Q56L/Q94N/R180L/S48T/Y33H/Y91S); experiment: biochemical; assay type: binding
HLA-B*4501 = HLA-B*4501 (Homo sapiens, UniProt P01889, A329T/A65T/A93T/A95T/C349S/D138N/D201E/D98Y/E176V/E187L/E204Q/E69K/H137Y/K202T/L119W/N87E/Q56L/Q94N/R155S/R180D/S121R/S35A/S48T/V127L/V306I/V36M/W191S/Y140L/Y33H/Y91S); experiment: biochemical; assay type: binding
HLA-B*1801 = HLA-B*1801 (Homo sapiens, UniProt P01889, A329T/A93T/A95T/C349S/D201E/D54G/D98Y/E176V/E187T/E204Q/E69T/K202T/Q94N/R155S/R180L/S121R/V306I/Y140S/Y195H/Y33H/Y91S); experiment: biochemical; assay type: binding
HLA-B*4402 = HLA-B*4402 (Homo sapiens, UniProt P01889, A223V/A65T/A93T/A95T/D201E/D98Y/E176V/E187L/E204Q/E69K/G107R/H137Y/K202T/L105A/L119I/N104T/N87E/Q56L/Q94N/R106L/R155S/R180D/S101N/S121R/S35A/S48T/T118I/V36M/W191S/Y140D/Y91S); experiment: biochemical; assay type: binding
HLA-B*4001 = HLA-B*4001 (Homo sapiens, UniProt P01889, A65T/A93T/A95T/D138N/D98Y/E176V/E69K/N87E/Q56L/Q94N/R180L/S121R/S35A/S48T/T167S/V36M/W171L/Y33H/Y91S); experiment: biochemical; assay type: binding
HLA-A*2301 = HLA-A*2301 (Homo sapiens, UniProt P04439, D101N/D140Y/D185E/E176V/E190D/F33S/G103R/G107R/H175R/I119L/I121M/I306V/K168Q/K335N/L105A/L300P/N151K/N90K/P307H/Q86E/Q94H/R106L/R138H/R89G/T104I/T345S/V100E/W191G/Y123F); experiment: biochemical; assay type: binding
HLA-A*2402 = HLA-A*2402 (Homo sapiens, UniProt P04439, D101N/D140Y/D185E/E176V/E190D/F33S/G103R/G107R/I119L/I121M/I306V/K335N/L105A/L180Q/L300P/N151K/N90K/Q86E/Q94H/R106L/R138H/R89G/T104I/T345S/V100E/W191G/Y123F); experiment: MHC molecular binding / Capture assay, IC50: A*2402
HLA-A*2902 = HLA-A*2902 (Homo sapiens, UniProt P04439, A270S/D101N/D185E/E176V/E277Q/E87Q/F33T/G231S/H175R/I121M/I218V/I322F/K168Q/L300P/L318F/M331R/P208A/P217A/Q86L/T323A/T345S/V100A/V358M); experiment: MHC molecular binding / Capture assay, IC50: A*2902
HLA-A*3002 = HLA-A*3002 (Homo sapiens, UniProt P04439, D101N/D140H/D185E/E176R/F33S/G80R/H175R/K168Q/Q94H/R138E/R41S/V100E); experiment: biochemical; assay type: binding

ADLMGYIPL
IC50 (HLA-B*4002; B*4002): 4.7 nM | IC50 (HLA-B*4501; B*4501): > 49000 nM | IC50 (HLA-B*1801; B*1801): > 7620 nM | IC50 (HLA-B*4402; B*4402): > 21400 nM | IC50 (HLA-B*4001; B*4001): 959 nM

AEFLWVTVY
IC50 (HLA-B*4002): 240 nM | IC50 (HLA-B*4501): 472 nM | IC50 (HLA-B*1801): 131 nM | IC50 (HLA-B*4402): 1010 nM | IC50 (HLA-B*4001): 183 nM

AEKLWVTVY
IC50 (HLA-B*4501): 219 nM | IC50 (HLA-B*4402): 168 nM | IC50 (HLA-B*4001): 18300 nM

AENFWVTVY
IC50 (HLA-B*4002): 542 nM | IC50 (HLA-B*4501): 289 nM | IC50 (HLA-B*4001): 1390 nM

AENLFVTVY
IC50 (HLA-B*4002): 334 nM | IC50 (HLA-B*4501): 232 nM | IC50 (HLA-B*1801): 29 nM | IC50 (HLA-B*4001): 970 nM

AENLPVTVY
IC50 (HLA-B*4501): 246 nM | IC50 (HLA-B*1801): 20 nM | IC50 (HLA-B*4402): 356 nM | IC50 (HLA-B*4001): 205 nM

AENLWVTDY
IC50 (HLA-B*4501): 328 nM | IC50 (HLA-B*1801): 1000 nM | IC50 (HLA-B*4402): 191 nM | IC50 (HLA-B*4001): 930 nM

AENLWVTKY
IC50 (HLA-B*4002): 2000 nM | IC50 (HLA-B*4501): 201 nM | IC50 (HLA-B*1801): 511 nM | IC50 (HLA-B*4001): 1010 nM

AENLWVTLY
IC50 (HLA-B*4002): 731 nM | IC50 (HLA-B*4501): 349 nM | IC50 (HLA-B*1801): 392 nM | IC50 (HLA-B*4402): 199 nM

AENLWVTVG
IC50 (HLA-B*4002): 47 nM | IC50 (HLA-B*4501): 35 nM | IC50 (HLA-B*1801): 39700 nM | IC50 (HLA-B*4001): 861 nM

AENLWVTVH
IC50 (HLA-B*4002): 151 nM | IC50 (HLA-B*4501): 120 nM | IC50 (HLA-B*4001): 493 nM

AENLWVTVS
IC50 (HLA-B*4501): 34 nM | IC50 (HLA-B*1801): 25700 nM | IC50 (HLA-B*4402): 4220 nM

AENLWVTVT
IC50 (HLA-B*4002): 7.8 nM | IC50 (HLA-B*4501): 10 nM | IC50 (HLA-B*4402): 2700 nM | IC50 (HLA-B*4001): 947 nM

AENLWVTVV
IC50 (HLA-B*4002): 19 nM | IC50 (HLA-B*4501): 35 nM | IC50 (HLA-B*1801): 10700 nM | IC50 (HLA-B*4402): 5760 nM | IC50 (HLA-B*4001): 84 nM

AENNWVTVY
IC50 (HLA-B*4501): 99 nM

AENVWVTVY
IC50 (HLA-B*4002): 386 nM | IC50 (HLA-B*4501): 737 nM | IC50 (HLA-B*4001): 2240 nM

AEPAAEGVGA
IC50 (HLA-B*4501): 104 nM | IC50 (HLA-B*1801): > 8120 nM | IC50 (HLA-B*4402): > 22600 nM | IC50 (HLA-B*4001): 4120 nM

AEPAAEGVGAV
IC50 (HLA-B*4501): 1500 nM | IC50 (HLA-B*1801): > 8610 nM | IC50 (HLA-B*4402): > 23900 nM | IC50 (HLA-B*4001): 20400 nM

CEKCSKPCARV
IC50 (HLA-B*4501; read-out: B*4501): 1560 nM

DEIGVIDLY
IC50 (HLA-B*4002; B*4002): > 77300 nM | IC50 (HLA-B*4501; B*4501): > 49000 nM | IC50 (HLA-B*4402; B*4402): 707 nM | IC50 (HLA-B*4001; B*4001): > 114000 nM

IEDPPYNSL
IC50 (HLA-B*4002): 688 nM | IC50 (HLA-B*4501): 18700 nM | IC50 (HLA-B*1801): 35500 nM | IC50 (HLA-B*4001): 16 nM

KENLWVTVY
IC50 (HLA-B*4002): 373 nM | IC50 (HLA-B*4501): 6220 nM | IC50 (HLA-B*1801): 184 nM | IC50 (HLA-B*4402): 308 nM | IC50 (HLA-B*4001): 2740 nM

QEILDLWVY
IC50 (HLA-B*4002; B*4002): 4520 nM | IC50 (HLA-B*4501; B*4501): 6260 nM | IC50 (HLA-B*1801; B*1801): 52 nM | IC50 (HLA-B*4402; B*4402): 264 nM | IC50 (HLA-B*4001; B*4001): 740 nM

TENLWVTVY
IC50 (HLA-B*4501; B*4501): 5300 nM | IC50 (HLA-B*4001; B*4001): 14000 nM

VYREGNPFGF
IC50 (HLA-A*2301): 91 nM | IC50 (HLA-A*2402): 197 nM | IC50 (HLA-A*2902): 11100 nM | IC50 (HLA-A*3002): 21900 nM

VYRHCEYIL
IC50 (HLA-A*2301): 64 nM | IC50 (HLA-A*2402): 2200 nM | IC50 (HLA-A*2902; A*2902 binding affinity (IC50)): 118000 nM | IC50 (HLA-A*3002; A*3002 binding affinity (IC50)): 3330 nM

YEDLRVLSF
IC50 (HLA-B*4002): 71 nM | IC50 (HLA-B*4501): 18700 nM | IC50 (HLA-B*1801): 20 nM | IC50 (HLA-B*4402): 24 nM | IC50 (HLA-B*4001): 67 nM
